Drawing on PubChem BioAssay (NCI), this text covers GI50 and TGI for 11 compounds.

Structures are written as SMILES.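 96-well plates; 48 h exposure; 5 concentrations. Endpoints by linear interpolation between flanking doses. Not reached: highest tested concentration assigned. GI50: concentration for 50% inhibition of growth. At the TGI there is no net growth.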 Where only a bound is given, the exact number is not on record here.

Test systems include NCI-H23 lung; SN12C renal; NCI-H522 lung; SNB-75 CNS; OVCAR-8 ovarian; MOLT-4 leukemia; SK-OV-3 ovarian; LOX IMVI melanoma; SK-MEL-2 melanoma; KM12 colon.
Common to all, as to assay: NCI tumour cell line growth inhibition, 48 h

`CCCCCCCCCCCCCCCC[N+]1(C)CCOCC1`: the GI50 with NCI-H23 lung was 2.2 µM; with SN12C renal, 2.6 µM; in the assay with NCI-H522 lung it was 2.09 µM; with SNB-75 CNS it was 0.868 µM; with OVCAR-8 ovarian, 2.53 µM; with MOLT-4 leukemia, 1.6 µM. Moreover, the GI50 in the assay with SK-OV-3 ovarian was 2.2 µM. The TGI in the assay with NCI-H23 lung is 12.2 µM; with SN12C renal, 8.92 µM; in the assay on NCI-H522 lung, 5.07 µM; with SNB-75 CNS, 2.46 µM; in the assay with OVCAR-8 ovarian it was 8.84 µM; in the assay with MOLT-4 leukemia, 3.69 µM. This compound returned a TGI with SK-OV-3 ovarian of 7.36 µM.

On to `O=C(O)c1ccccc1/C=N/N=C1c2ccccc2-c2ccccc21`, for which the TGI in the assay with NCI-H23 lung, in the assay on SN12C renal, in the assay with NCI-H522 lung, in the assay with LOX IMVI melanoma, with SK-MEL-2 melanoma and in the assay with OVCAR-8 ovarian was greater than 100 µM each time. The TGI was 71 µM in the assay with MOLT-4 leukemia, greater than 100 µM in the assay on SK-OV-3 ovarian and 58.7 µM in the assay on KM12 colon.

As for `CSC(=NCCc1c[nH]c2ccccc12)NC#N`, the TGI in the assay on NCI-H23 lung, in the assay with SN12C renal, in the assay with LOX IMVI melanoma, in the assay on SNB-75 CNS, in the assay with OVCAR-8 ovarian and in the assay with MOLT-4 leukemia was greater than 100 µM throughout. Moreover, the TGI with SK-OV-3 ovarian and in the assay with KM12 colon was greater than 100 µM throughout.

For the compound `O=C(O)[C@@H](Cc1ccc2ccccc2c1)NC(=O)n1c2ccccc2c2ccccc21`, the GI50 in the assay with NCI-H23 lung is 3.72 µM; in the assay on SN12C renal, 3.94 µM; in the assay with NCI-H522 lung it was 0.356 µM; with LOX IMVI melanoma, 3.63 µM; with SK-MEL-2 melanoma, 4.19 µM; in the assay on OVCAR-8 ovarian, 4.16 µM. The GI50 in the assay with MOLT-4 leukemia is 4.12 µM; with SK-OV-3 ovarian, 5.64 µM; in the assay on KM12 colon, 2.18 µM. The TGI in the assay with NCI-H23 lung is 26.7 µM; with SN12C renal, 17.7 µM; with NCI-H522 lung, 2.21 µM; in the assay on LOX IMVI melanoma, 20 µM; in the assay on SK-MEL-2 melanoma it was 43.3 µM; in the assay with OVCAR-8 ovarian, greater than 100 µM. Besides, the results for the TGI in the assay on MOLT-4 leukemia, with SK-OV-3 ovarian and in the assay with KM12 colon were 20.7 µM, 44.5 µM and 14.3 µM, respectively.

Regarding `C[C@H]1CCCC(O)C(O)[C@@H]2C[C@H](O[Si](C)(C)C(C)(C)C)C[C@H]2[C@H](O[Si](C)(C)C(C)(C)C)C(O)C(O)C(=O)O1` (stereo partly specified), the GI50 with SN12C renal was 34.6 µM; in the assay with SK-MEL-2 melanoma it was 34.8 µM; in the assay with SNB-75 CNS, 4.3 µM; in the assay on OVCAR-8 ovarian it was 13.5 µM; with MOLT-4 leukemia it was 66 µM; in the assay on SK-OV-3 ovarian it was 54.6 µM. In the assay with KM12 colon, the GI50 is 37.5 µM. In addition, the TGI was greater than 100 µM in the assay with SN12C renal; greater than 100 µM in the assay on SK-MEL-2 melanoma; 18.1 µM in the assay with SNB-75 CNS; 37.3 µM with OVCAR-8 ovarian; greater than 100 µM in the assay with MOLT-4 leukemia; greater than 100 µM in the assay on SK-OV-3 ovarian. In the assay with KM12 colon, this compound had a TGI greater than 100 µM.

On to `CC(=O)O[C@H]1CCc2c(cc(N)c3c2C(=O)C[C@]2(C)C([C@H](C)CCCC(C)C)CCC32C)C1(C)C` (stereo partly specified), for which the TGI in the assay on NCI-H23 lung, in the assay with SN12C renal, with NCI-H522 lung, in the assay with SK-MEL-2 melanoma, with SNB-75 CNS and in the assay on OVCAR-8 ovarian was greater than 100 µM throughout. For the same compound, the TGI with MOLT-4 leukemia, in the assay on SK-OV-3 ovarian and in the assay on KM12 colon was greater than 100 µM each time.

Consider `CSC1=Nc2ccccc2N=C(c2ccc(Cl)cc2)C1`, for which the TGI was greater than 100 µM in the assay with NCI-H23 lung; greater than 100 µM with SN12C renal; greater than 100 µM in the assay with NCI-H522 lung; 72.1 µM in the assay on LOX IMVI melanoma; 51.4 µM in the assay with SK-MEL-2 melanoma; greater than 100 µM in the assay with OVCAR-8 ovarian. The figures for the TGI with MOLT-4 leukemia, in the assay with SK-OV-3 ovarian and with KM12 colon were 67.4 µM, greater than 100 µM and greater than 100 µM, respectively.

Turning to `COc1cnc2c(c1)C(=O)c1c-2n(CCCN2CCN(C)CC2)c(=O)c2cc([N+](=O)[O-])ccc12`, the GI50 in the assay with NCI-H23 lung was 0.362 µM; with NCI-H522 lung it was 0.479 µM; in the assay on LOX IMVI melanoma, 0.18 µM; in the assay on SK-MEL-2 melanoma, 11 µM; with SNB-75 CNS, 1.55 µM; in the assay on OVCAR-8 ovarian, 1.19 µM. For the same compound, the GI50 with SK-OV-3 ovarian was 1.8 µM; with KM12 colon it was 2.11 µM. In addition, the TGI in the assay on NCI-H23 lung was 2.6 µM; in the assay with NCI-H522 lung, 2.39 µM; in the assay on LOX IMVI melanoma, 0.396 µM; with SK-MEL-2 melanoma, 23.2 µM; in the assay with SNB-75 CNS, 2.95 µM; with OVCAR-8 ovarian, 6.96 µM. The figures for the TGI with SK-OV-3 ovarian and with KM12 colon were 3.59 µM and 7.8 µM, respectively.

Regarding `CCCCn1c(-c2ccc(C(=O)O/N=C(\N)c3ccc4c(c3)OCO4)cc2)nc(-c2ccccc2)c1-c1ccccc1`, the GI50 in the assay with NCI-H23 lung is 2.23 µM; in the assay with SN12C renal, 1.8 µM; in the assay on NCI-H522 lung, 2.04 µM; in the assay with LOX IMVI melanoma, 0.185 µM; in the assay with SK-MEL-2 melanoma, 4.19 µM; in the assay with SNB-75 CNS, 1.53 µM. Also, the GI50 is 3.37 µM in the assay on OVCAR-8 ovarian, 7.13 µM in the assay with SK-OV-3 ovarian and 4.72 µM in the assay on KM12 colon. The TGI in the assay with NCI-H23 lung was greater than 100 µM; in the assay on SN12C renal, 3.7 µM; in the assay on NCI-H522 lung it was 4.89 µM; in the assay with LOX IMVI melanoma, 0.379 µM; with SK-MEL-2 melanoma, greater than 100 µM; with SNB-75 CNS, 3.88 µM. The TGI in the assay on OVCAR-8 ovarian, in the assay with SK-OV-3 ovarian and in the assay on KM12 colon was greater than 100 µM in each case.

As for `CCCCN(CCCC)C(=O)/C(CC(=O)c1cccc2ccccc12)=N\NC(=O)c1cc2ccccc2cc1O`, the TGI was 45.6 µM in the assay on NCI-H23 lung; 52.6 µM with SN12C renal; 35.9 µM with LOX IMVI melanoma; 45.7 µM in the assay on SK-MEL-2 melanoma; 92.7 µM in the assay on SNB-75 CNS; greater than 100 µM in the assay with OVCAR-8 ovarian. The TGI with MOLT-4 leukemia is 42.9 µM; in the assay with KM12 colon it was greater than 100 µM.

For the compound `Cc1c(C(=O)O)oc2ccc([N+](=O)[O-])cc12`, the TGI in the assay on NCI-H23 lung, in the assay with SN12C renal, with NCI-H522 lung, in the assay on LOX IMVI melanoma, in the assay with SK-MEL-2 melanoma and in the assay with OVCAR-8 ovarian was greater than 100 µM throughout. Also, the TGI with SK-OV-3 ovarian and in the assay with KM12 colon was greater than 100 µM throughout.
